From US20240368096A1 (Enanta Pharmaceuticals, Inc., priority 2022, published 2024)

System: HBV
Experiment: HBV infection in HepG2-NTCP cells (HBeAg AlphaLISA in supernatants)
Format: cell-based
Settings: Hepatitis B virus, 192 h; HBV infection of HepG2-NTCP cells; HBeAg in supernatants at day 8 post infection; read-out: Cellular EC50
Summary of the method: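 HepG2-NTCP A3 cells were pre-incubated 2 h with 3-fold serially diluted compounds, then infected with HBV at 2000 GE/cell with 4% PEG (0.5% DMSO final). After washing on day 1, cells stayed in 2.5% DMSO medium; supernatant HBeAg measured by AlphaLISA on day 8, EC50 versus DMSO controls.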

Row | Structure (SMILES) | EC50 [µM]
1 | Cc1cnc(COc2cc3c(cc2-c2ccc(F)c(C(=O)O)c2)S(=O)(=O)N(C)[C@H](C2CCCCC2)CN3c2ccccc2)s1 [Example 342] | < 0.1
2 | CC(C)CCCCCOc1cc2c(cc1-c1ccc(F)c(C(=O)O)c1)S(=O)(=O)N(C)[C@H](C1CCCCC1)CN2c1ccccc1 [Example 362] | < 0.1
3 | Cc1nnc(COc2cc3c(cc2-c2ccc(F)c(C(=O)O)c2)S(=O)(=O)N(C)[C@H](CC(C)C)CN3c2ccccc2)o1 [Example 457] | 0.1 to 1
4 | CN1[C@H](C2CCCCC2)CN(c2cnc(C(F)(F)F)nc2)c2cc(Cl)c(-c3ccc(F)c(C(=O)O)c3)cc2S1(=O)=O [Example 288] | 0.1 to 1
5 | CN1[C@H](C2CCCCC2)CN(c2ccccc2)c2cc(OCc3csc(Cl)c3)c(-c3cc(F)c(C(=O)O)s3)cc2S1(=O)=O [Example 487] | < 0.1
6 | CC(=O)NS(=O)(=O)c1cccc(-c2cc3c(cc2Cl)N(c2ccccc2)C[C@@H](C2CCCCC2)N(C)S3(=O)=O)c1 [Example 222] | 0.1 to 1
7 | CN1[C@H](C2CCCCC2)CN(c2ccccc2)c2cc(C3CCN(C(=O)OC(C)(C)C)CC3)c(-c3ccc(F)c(C(=O)O)c3)cc2S1(=O)=O [Example 590] | 0.1 to 1
8 | CN1[C@H](C2CCCCC2)CN(c2ccccc2)c2cc(OCC34CC(C#N)(CO3)C4)c(-c3cc(F)c(C(=O)O)s3)cc2S1(=O)=O [Example 504] | < 0.1
9 | O=C(O)c1cc(-c2cc3c(cc2Cl)N(c2ccccc2)CC(C2CCCCC2)CS3(=O)=O)cc(F)c1F (racemic) [Example 606, Rac-5-(7-chloro-3-cyclohexyl-1,1-dioxido-5-phenyl-2,3,4,5-tetrahydrobenzo[b][1,4]thiazepin-8-yl)-2,3-difluorobenzoic acid] | < 0.1
10 | CN1[C@H](C2CCCCC2)CN(c2ccccc2)c2cc(Cl)c(-c3ccc(F)c(S(N)(=O)=O)c3)cc2S1(=O)=O [Example 199] | 0.1 to 1
11 | CSc1cc2c(cc1-c1cc(C)c(C(=O)O)s1)S(=O)(=O)N(C)[C@H](C1CCCCC1)CN2c1ccccc1 [Example 562, (R)-5-(3-cyclohexyl-2-methyl-7-(methylthio)-1,1-dioxido-5-phenyl-2,3,4,5-tetrahydrobenzo[f][1,2,5]thiadiazepin-8-yl)-3-methylthiophene-2-carboxylic acid] | < 0.1
12 | CC(C)C[C@@H]1CN(c2ccccc2)c2cc(OC(C)(C)C)c(-c3ccc(Cl)c(C(=O)O)c3)cc2S(=O)(=O)N1C [Example 440] | < 0.1
13 | CN1[C@H](C2CCCCC2)CN(C2CCC2)c2cc(Cl)c(-c3ccc(F)c(C(=O)O)c3)cc2S1(=O)=O [Example 322] | 0.1 to 1
14 | CN1[C@H](C2CCCCC2)CN(c2ccccc2)c2cc(OCc3ccccc3C#N)c(-c3cc(F)c(C(=O)O)s3)cc2S1(=O)=O [Example 510] | < 0.1
15 | CN1[C@H](C2CCCCC2)CN(c2ccccc2)c2cc(OCc3cnco3)c(-c3ccc(F)c(C(=O)O)c3)cc2S1(=O)=O [Example 343] | 0.1 to 1
16 | CN1[C@H](C2CCCC2)CN(c2ccccc2)c2cc(Cl)c(-c3ccc(F)c(C(=O)O)c3)cc2S1(=O)=O [Example 66] | 0.1 to 1
17 | CN1[C@H](C2CCCCC2)CN(c2ccccc2)c2cc(Cl)c(-c3ccc4c(c3)S(=O)(=O)NC4=O)cc2S1(=O)=O [Example 198] | 0.1 to 1

Row | Structure (SMILES) | EC50 [µM]
18 | CN1[C@H](C2CCCCC2)CN(c2ccccc2)c2cc(Cl)c(-c3cc(C(=O)O)[nH]n3)cc2S1(=O)=O [Example 135, (R)-3-(7-chloro-3-cyclohexyl-2-methyl-1,1-dioxido-5-phenyl-2,3,4,5-tetrahydrobenzo[f][1,2,5]thiadiazepin-8-yl)-1H-pyrazole-5-carboxylic acid] | 0.1 to 1
19 | CC(C)CC1CN(c2ccccc2)c2cc(Cl)c(-c3ccc(Cl)c(C(=O)O)c3)cc2S(=O)(=O)N1C (stereo not drawn) [Example 38] | < 0.1
20 | CN1[C@H](C2CCCCC2)CN(c2ccccc2)c2cc(Cl)c(-c3cc(NC(=O)OCC(C)(C)C#N)c(C(=O)O)s3)cc2S1(=O)=O [Example 256] | < 0.1
21 | CN1[C@H](C2CCCCC2)CN(c2ccccc2)c2cc(OCc3cn(C)cn3)c(-c3ccc(F)c(C(=O)O)c3)cc2S1(=O)=O [Example 389, (R)-5-(3-cyclohexyl-2-methyl-7-((1-methyl-1H-imidazol-4-yl)methoxy)-1,1-dioxido-5-phenyl-2,3,4,5-tetrahydrobenzo[f][1,2,5]thiadiazepin-8-yl)-2-fluorobenzoic acid] | 0.1 to 1
22 | CC(C)C[C@@H]1CN(c2ccccc2)c2cc(OCCc3ccoc3)c(-c3ccc(F)c(C(=O)O)c3)cc2S(=O)(=O)N1C [Example 461] | < 0.1
23 | CN1[C@H](C2CCCCC2)CN(c2ccccc2)c2cc(C3CCN(C(=O)c4ccno4)CC3)c(-c3ccc(F)c(C(=O)O)c3)cc2S1(=O)=O [Example 599] | > 1
24 | CN1[C@H](C2CCCCC2)CN(c2ccccc2)c2cc(Cl)c(-c3cc(F)c(N)c(C(=O)O)c3)cc2S1(=O)=O [Example 190] | 0.1 to 1
25 | Cc1cc(N2C[C@@H](C3CCCCC3)N(C)S(=O)(=O)c3cc(-c4ccc(F)c(C(=O)O)c4)c(Cl)cc32)ccn1 [Example 285] | > 1
26 | CCCOC(=O)Nc1cc(-c2cc3c(cc2Cl)N(c2ccccc2)C[C@@H](C2CCCCC2)N(C)S3(=O)=O)sc1C(=O)O [Example 243] | < 0.1
27 | CC(C)OC[C@@H]1CN(c2ccccc2)c2cc(Cl)c(-c3ccc(F)c(C(=O)O)c3)cc2S(=O)(=O)N1C [Example 96, (S)-5-(7-chloro-3-(isopropoxymethyl)-2-methyl-1,1-dioxido-5-phenyl-2,3,4,5-tetrahydrobenzo[f][1,2,5]thiadiazepin-8-yl)-2-fluorobenzoic acid] | 0.1 to 1
28 | CN1[C@H](C2CCC2)CN(c2ccccc2)c2cc(Cl)c(-c3ccc(Cl)c(C(=O)O)c3)cc2S1(=O)=O [Example 81] | < 0.1
29 | CN(C)c1cc2c(cc1-c1ccc(F)c(C(=O)O)c1)S(=O)(=O)N(C)[C@H](C1CCCCC1)CN2c1ccccc1 [Example 529] | < 0.1
30 | CC(C)C[C@@H]1CN(c2ccccc2)c2cc(Cl)c(-c3ccc4onc(N)c4c3)cc2S(=O)(=O)N1C [Example 170] | > 1
31 | CN1[C@H](C2CCCCC2)CN(c2ccccc2)c2cc(Cl)c(-c3cncc(C(=O)O)c3)cc2S1(=O)=O [Example 136, (R)-5-(7-chloro-3-cyclohexyl-2-methyl-1,1-dioxido-5-phenyl-2,3,4,5-tetrahydrobenzo[f][1,2,5]thiadiazepin-8-yl)nicotinic acid] | > 1
32 | COC(C)(C)CCOC(=O)Nc1cc(-c2cc3c(cc2Cl)N(c2ccccc2)C[C@@H](C2CCCCC2)N(C)S3(=O)=O)sc1C(=O)O [Example 261] | 0.1 to 1
33 | CC(C)C[C@@H]1CN(c2ccccc2)c2cc(Cl)c(-c3cccc(S(=O)(=O)NC(=O)c4ccccc4)c3)cc2S(=O)(=O)N1C [Example 221] | 0.1 to 1

Continued, values first:

Row | EC50 [µM] | Structure (SMILES)
34 | 0.1 to 1 | CN1[C@H](C2CCCCC2)CN(c2ccccc2)c2cc(N3CC4(CCCC4)C3)c(-c3ccc(F)c(C(=O)O)c3)cc2S1(=O)=O [Example 533]
35 | < 0.1 | CN1[C@H](C2CCCCC2)CN(c2ccccc2)c2cc(Cl)c(-c3ccc(C(=O)O)s3)cc2S1(=O)=O [Example 130, (R)-5-(7-chloro-3-cyclohexyl-2-methyl-1,1-dioxido-5-phenyl-2,3,4,5-tetrahydrobenzo[f][1,2,5]thiadiazepin-8-yl)thiophene-2-carboxylic acid]
36 | > 1 | CC1CN(c2ccccc2)c2cc(F)c(-c3ccc(F)c(C(=O)O)c3)cc2S(=O)(=O)N1C (stereo not drawn) [Example 1, 2-fluoro-5-(7-fluoro-2,3-dimethyl-1,1-dioxido-5-phenyl-2,3,4,5-tetrahydrobenzo[f][1,2,5]thiadiazepin-8-yl)benzoic acid]
37 | > 1 | CC(C)C[C@@H]1CN(c2ccccc2)c2cc(OCC3CCCN3C)c(-c3ccc(F)c(C(=O)O)c3)cc2S(=O)(=O)N1C (stereo partly drawn) [Example 449]
38 | < 0.1 | CN1[C@H](C2CCCCC2)CN(c2ccccc2)c2cc(F)c(-c3ccc(F)c(C(=O)O)c3)cc2S1(=O)=O [Example 176]
39 | < 0.1 | CN1[C@H](C2CCCCC2)CN(c2cc(F)cc(F)c2)c2cc(Cl)c(-c3ccc(F)c(C(=O)O)c3)cc2S1(=O)=O [Example 297]
40 | 0.1 to 1 | C[C@H](OCc1ccccc1)[C@@H]1CN(c2ccccc2)c2cc(Cl)c(-c3ccc(F)c(C(=O)O)c3)cc2S(=O)(=O)N1C [Example 90]
41 | < 0.1 | CN1[C@H](C2CCCCC2)CN(c2ccccc2)c2cc(O[C@H]3C[C@@H](F)C3)c(-c3ccc(F)c(C(=O)O)c3)cc2S1(=O)=O [Example 380]
42 | > 1 | CC(C)C[C@@H]1CN(c2ccccc2)c2cc(Cl)c(-c3ccc4[nH]cc(C(=O)O)c4c3)cc2S(=O)(=O)N1C [Example 212]
43 | < 0.1 | CO[C@@H]1CCN(c2cc3c(cc2-c2ccc(F)c(C(=O)O)c2)S(=O)(=O)N(C)[C@H](C2CCCCC2)CN3c2ccccc2)C1 [Example 531]
44 | 0.1 to 1 | CN1[C@H](c2ccccc2)CN(c2ccccc2)c2cc(Cl)c(-c3ccc(F)c(C(=O)O)c3)cc2S1(=O)=O [Example 54]
45 | < 0.1 | CN1[C@H](C2CCCCC2)CN(c2ccccc2)c2cc(O[C@@H]3CCN(C(=O)OC(C)(C)C)C3)c(-c3ccc(F)c(C(=O)O)c3)cc2S1(=O)=O [Example 397]
46 | 0.1 to 1 | CC(C)C[C@@H]1CN(c2ccccc2)c2cc(Cl)c(-c3cccc(P(=O)(O)O)c3)cc2S(=O)(=O)N1C [Example 233]
47 | < 0.1 | CN1[C@H](C2CCCCC2)CN(c2ccccc2)c2cc(OCCCc3cscn3)c(-c3ccc(F)c(C(=O)O)c3)cc2S1(=O)=O [Example 347]
48 | 0.1 to 1 | CC(C)C[C@@H]1CN(C(C)C)c2cc(Nc3ccccc3F)c(-c3ccc(F)c(C(=O)O)c3)cc2S(=O)(=O)N1C [Example 561]
49 | < 0.1 | CN1[C@H](C2CCCCC2)CN(c2ccccc2)c2cc(OCCOC3CC3)c(-c3cc(F)c(C(=O)O)s3)cc2S1(=O)=O [Example 496]
50 | 0.1 to 1 | CO[C@H]1C[C@@H](Oc2cc3c(cc2-c2ccc(F)c(C(=O)O)c2)S(=O)(=O)N(C)[C@H](C2CCCCC2)CN3c2ccccc2)C1 [Example 379]
51 | > 1 | CN1[C@H](CN2CCCC2=O)CN(c2ccccc2)c2cc(Cl)c(-c3ccc(F)c(C(=O)O)c3)cc2S1(=O)=O [Example 115]
